Laboratory results reported in patent US8853373B2, “Method and reagent for gene sequence analysis” (Hitachi, Ltd., priority 2009, dated 2014).

Key:
DNA Sequence S2 = assay: Sequence analysis by stepwise chemical reaction (pyrogram), PPDK system, Condition 4; assay type: biochemical; details: DNA Sequence S2 (3 consecutive nucleotides)
Experimental: Therefore, a sequence having 3 consecutive nucleotides of T was analyzed for comparison. Analyzed DNA Sequence S2 and a primer P3 are described below.
Of note is that Sequence P3 represents a primer sequence. This primer can complementarily bind to the underlined portion of the above DNA Sequence S2. FIGS. 16 to 20 show the results of a sequence analysis. In addition, the reagent conditions were listed together in the following Table 3.
In this experiment, an enzyme system which converts PPi into ATP has employed an enzyme system in which PPi and AMP are converted into ATP by PPDK as described in the conventional technique (Patent Literature 4). The items of the figure are identical to those of FIG. 15. At the bottom of the respective figures, the injected nucleotide types are designated. At the top, the nucleotide types which have been incorporated into a complementary DNA sequence of analysis object are designated. The substrate was injected in the order of “bases A, T, C, and G”, and 7 cycles were analyzed. As indicated in the target sequence, in this analysis, two regions (Cycle 4 and Cycle 7) having 3 consecutive nucleotides of A incorporated are present. Because of this, a difference in the ability of continuous incorporation of a nucleic acid substrate that is used as a nucleotide A can be assessed. Hereinafter, the details are described.
First, three kinds of the substrates (A3d, dATPαS, and C^7dATP) having the final concentration of 2 μM were used. The results of a sequence analysis will be described (FIGS. 16 to 20). […] At the time of dispensing A (surrounded by the circle ◯) which represented the injected nucleotide type, A3d was used. […] Accordingly, as the signal corresponding to A at the first cycle indicated, background luminescence was observed. Due to this phenomenon, the luminescence signal corresponding to nucleotide A constantly included the increased background luminescence. The symbol • in the figure denotes elongation luminescence corresponding to a nucleotide sequence of a sample. In contrast, the major luminescence without corresponding to the nucleotide sequence is represented by the symbol ∇. […] At the time of dispensing A (surrounded by the circle ◯) which represented the injected nucleotide type, dATPαS was used. The resulting pyrogram and the nucleotide sequence of a sample were compared. The symbol • in the figure denotes elongation luminescence corresponding to a nucleotide sequence of a sample. In contrast, the major luminescence without corresponding to the nucleotide sequence is represented by the symbol ∇. […] At the time of dispensing A (surrounded by the circle ◯) which represented the injected nucleotide type, C^7dATP was used. […] Accordingly, as the signal corresponding to A at the first cycle indicated, big background luminescence was observed. Due to this phenomenon, the luminescence signal corresponding to nucleotide A constantly included the increased background luminescence. The symbol x in the figure denotes just a background luminescence signal. The symbol • denotes elongation luminescence corresponding to a nucleotide sequence of a sample. However, the symbol (•) denotes inclusion of both elongation-derived luminescence and background luminescence. In contrast, the major luminescence without corresponding to the nucleotide sequence is represented by the symbol ∇.

luciferase = luciferase (Photinus pyralis, UniProt P08659); assay: Evaluation of substrate specificity for luciferase (luminescence on dispensing the substrate); assay type: biochemical; details: for Substrate specificity (S) for luciferase, relative to that of ATP: amount of luminescence per unit concentration, substrate specificity of ATP normalized as 1
Experimental: In respect to the nucleic acid substrates synthesized, whether or not the substrates became a substrate for luciferase was evaluated by the following procedure. First, a luminescence reagent designated in Condition 1 of Table 1 was prepared.
Next, a reaction solution was prepared using 20 μL of this luminescence reagent, and 0.2 μL of a nucleic acid substrate of evaluation subject was injected. Then, luminescence emitted at this occasion was estimated. FIG. 6 is a graph showing the amount of luminescence when ATP, dATP, C^7dATP, and dATPαS are each dispensed as a substrate. The abscissa (C) indicates a final concentration of the compound in a reaction reagent. For example, when 0.2 μl of 1 μM substrate is dispensed, the final concentration is about 0.01 μM. An amount of luminescence (U) indicated in the ordinate was plotted by normalizing the amount of luminescence at 0.01 μM of ATP as 1. From this graph, the amount of luminescence (U) is found to be proportional to the final concentration (C). Because of this, as a substrate specificity (or substrate reactivity) for luciferase, the value (S) indicating the amount of luminescence per unit concentration is defined as described below. Substrate specificity (S)≡Amount of luminescence (U)/Final concentration (C)[μM]×0.01 (In this Definition, the Substrate Specificity of ATP is Normalized as 1).
The four points designated in the left side of the graph indicate each substrate specificity (S) of ATP, dATP, dATPαS, and C^7dATP. For a sequencing method using a stepwise chemical reaction represented by pyrosequencing, the amount of ATP generated from pyrophosphate produced in elongation of one nucleotide is equivalent to the amount of a target present in a reaction solution when all of the targets have been elongated. In addition, elongation of a plurality of nucleotides causes the amount to be multiplied by the number of the nucleotides. Generally speaking, the amount of a nucleic acid substrate which should be dispensed per reaction for sequencing requires about 100 times the amount of the target for analysis. This is because a sequenced region may sometimes contain about 10 consecutive identical nucleotides; and a reaction solution for this sequencing method has a substrate-degrading enzyme together, so that the nucleic acid elongation and substrate degradation are competed. Shortage of the substrates causes incomplete elongation, so that the following sequence analysis cannot be carried out. […] As a countermeasure against it, the substrate having about 100 times the target amount which has been generally used is preferably dispensed per reaction.
In this Example, the synthesized nucleic acid substrates were purified by liquid chromatography. However, removal of pyrophosphate that had been incorporated during the synthesis may be insufficiently carried out only by liquid chromatography-mediated purification. At that occasion, the present inventors treated the synthesized nucleic acid substrates by a pyrophosphate-degrading enzyme (PPase) to decompose the pyrophosphate. Specifically, the synthesized nucleic acid substrate was diluted in a reaction solution (100 mM Tris-Acetate, 0.5 mM EDTA, 5 mM Mg-Acetate, 1 mM DTT, pH 7.5) at a concentration of 500 μM. Then, PPase was added at 0.2 mU/μL, and the mixture was reacted at 30° C. for 30 minutes, which caused degradation of pyrophosphate in the solution. This method represents one example. […]

[1] = final concentration 2 μM, 7 cycles

luciferase, sequence (P08659 whole entry, species assumed): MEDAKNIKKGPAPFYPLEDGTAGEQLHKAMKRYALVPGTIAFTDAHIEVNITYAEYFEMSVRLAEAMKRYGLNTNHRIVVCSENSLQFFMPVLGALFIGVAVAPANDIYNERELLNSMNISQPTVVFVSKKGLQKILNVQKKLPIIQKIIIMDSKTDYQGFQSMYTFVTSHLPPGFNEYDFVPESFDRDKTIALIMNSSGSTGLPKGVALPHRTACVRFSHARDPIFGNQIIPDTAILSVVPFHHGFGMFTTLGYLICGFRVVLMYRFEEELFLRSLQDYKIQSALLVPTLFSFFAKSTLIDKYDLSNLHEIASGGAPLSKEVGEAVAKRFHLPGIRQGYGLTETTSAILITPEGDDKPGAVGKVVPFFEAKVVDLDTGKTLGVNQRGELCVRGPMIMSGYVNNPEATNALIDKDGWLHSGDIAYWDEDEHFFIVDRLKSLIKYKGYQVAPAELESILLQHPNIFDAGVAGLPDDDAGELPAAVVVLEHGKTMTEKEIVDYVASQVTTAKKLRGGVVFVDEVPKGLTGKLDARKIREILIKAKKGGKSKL

Row | Compound | Sequence analysis result as substitute for dATP (DNA Sequence S2; [1]) | Substrate specificity for luciferase compared with that of dATPαS (luciferase; FIG. 7) | Substrate specificity (S) for luciferase, relative to that of ATP (luciferase) | Sequence analysis result as substitute for dATP (DNA Sequence S2; final concentration 4 μM)
1 | Nc1ncnc2c1c(/C=C/C(=O)NCCc1ccncc1)cn2[C@H]1CC(O)[C@@H](COP(=O)(O)OP(=O)(O)OP(=O)(O)O)O1 (stereo partly drawn) [A3d] | up to the nucleotide G at Cycle 7, a sequence analysis was found to be able to be definitely carried out | about one order higher | 1/1000 | 
2 | Nc1ncnc2c1ncn2[C@H]1C[C@H](O)[C@@H](COP(O)(=S)OP(=O)(O)OP(=O)(O)O)O1 (stereo partly drawn) [dATPαS] | incomplete elongation was able to be presumed to occur |  | 1/10000 | the incomplete elongation is not completely resolved
